{"source": "paper PMC3419223", "about": "“Transient Receptor Potential Ankyrin 1 Channel Localized to Non-Neuronal Airway Cells Promotes Non-Neurogenic Inflammation” (PLoS ONE, 2012)", "key": {"[1]": {"tested_on": "C57BL/6 mouse trachea and bronchi", "experiment": "Plasma protein extravasation (Evans blue dye) after intratracheal instillation", "format": "in vivo", "details": "L-733,060 2 µmol/kg i.v.; CPZ 30 mg/kg i.p.; HC 300 mg/kg i.g.; C57BL/6 mice", "procedure": "(§1) To defunctionalize/desensitize TRPV1 expressing primary sensory neurons, resiniferatoxin (RTX) was administered to C57BL/6 mice, as previously described, [40]. Briefly, mice were treated subcutaneously (s.c.) with a single injection of RTX (50 µg/kg) or its vehicle (10% ethanol and 10% tween 80 in isotonic saline) into the scruff of the neck under a light ether anesthesia to avoid unnecessary pain. Experiments were carried out 7 days after RTX treatment when responses to both TRPV1 and TRPA1 agonists in the treated mice were abolished, [40].\nAnesthetized (sodium pentobarbital, 50 mg/kg i.p.) C57BL/6 mice received Evans blue dye (30 mg/kg i.v.), 1 min before intratracheal (i.t) instillation (30 µl) of acrolein (5 mM), capsaicin (100 µM), SP (25 nM), CSE (1 OD) or their vehicles (isotonic saline, 1% ethanol in isotonic saline and isotonic saline). […] The tachykinin NK1 receptor antagonist, L-733,060 (2 µmol/kg i.v.; Tocris) or its vehicle were administered 15 min before the stimulus. The TRPV1 selective antagonist, capsazepine, (30 mg/kg i.p.) or its vehicle (2.5% DMSO in isotonic saline) and intragastric (i.g.) TRPA1 selective antagonist, HC-030031 (300 mg/kg i.g.) or its vehicle were administered 30 and 60 min before the stimulus, respectively. In another set of experiments ACR (5 mM, i.t.), or its vehicle, has been administered in C57BL/6 mice desensitized to RTX (50 µg/kg; s.c.). Animals were euthanized 15 min after treatment and transcardially perfused with 0.9% isotonic saline solution. The extravasated dye was extracted from mouse trachea and bronchi by overnight incubation in formamide and assayed by spectrophotometry at 620 nm, as reported previously."}, "[2]": {"tested_on": "C57BL/6 mice, Trpa1+/+ or Trpa1-/- mice", "experiment": "KC (CXCL-1) release in bronchoalveolar lavage fluid, ELISA", "format": "in vivo, mouse", "details": "HC-030031 300 mg/kg i.g.; L-733,060 2 µmol/kg i.v.; C57BL/6 mice", "procedure": "as §1\nTrpa1^+/+ or Trpa1^−/− B6129P mice (5 per group) were exposed acutely to the cigarette smoke (CS) produced with commercial cigarettes (Marlboro Red, 12 mg of tar, 0.9 mg of nicotine each), by using a “nose-only” exposure unit. The smoke produced by cigarette burning was introduced into the exposure chamber (inner volume = 11.61 l) with the airflow generated by a mechanical ventilator (7025 Rodent Ventilator, Ugo Basile) at a rate of 250 ml/min [58]. A second mechanical ventilator was used to provide room air for dilution (1∶8) of the smoke stream. Mice were exposed to the smoke of 5 cigarettes per exposure period, twice daily, for 3 consecutive days, and sacrificed 24 hours later. Genotype-, age-, strain- and sex-matched control animals were exposed to air only in the same manner for the same duration of time. Anesthetized C57BL/6, and Trpa1^+/+ or Trpa1^−/− (C57BL/6) mice were intratracheally administered with (30 µl) acrolein (5 mM), capsaicin (100 µM), SP (25 nM) and CSE (1 OD) or their vehicles (isotonic saline, 1% ethanol in isotonic saline and isotonic saline) and sacrificed 24 hours later. The NK1 receptor antagonist, L-733,060 (2 µmol/kg i.v.; Tocris) or its vehicle (isotonic saline) were administered 15 min before the stimulus, and i.g. HC-030031 (300 mg/kg) or its vehicle (0.5% CMC in isotonic saline 0.9%) were administered 1 hour before the stimulus. In another set of experiments ACR (5 mM, i.t.), or its vehicle, has been administered in C57BL/6 mice desensitized to RTX (50 µg/kg; s.c.). Animals were sacrificed 24 hours after the last exposure/treatment with an overdose of anesthetic followed by exsanguination, and the lungs were lavaged using a cannula inserted into the trachea and instilling 1 ml of Hank's Buffer added with HEPES 10 mM and EDTA 10 mM three times. […] BAL were centrifuged at 200× g at 4°C for 10 min, and the cell-free supernatants were stored at −80°C for cytokine determination. Frozen cell-free BAL was analyzed for keratinocyte chemoattractant (CXCL-1/KC, the murine analogue of IL-8) release by using a commercial ELISA-assay (Invitrogen)."}, "[3]": {"tested_on": "IL-8 release from SAEC, NHLF and HBSMC", "experiment": "IL-8 release from human airway/lung cells in primary culture, ELISA", "format": "cell-based", "details": "HC-030031 30 µM, AP18 10 µM", "procedure": "For IL-8 ELISA assays, HBSMC, SAEC, and NHLF were seeded in complete culture medium in 48-well plates, grown to ∼80–90% confluence, and incubated overnight in serum-free medium before treatments. All the treatments were performed in serum free medium. Cells were pretreated with the selective TRPA1 antagonists, HC-030031 and AP18, or their vehicles, for 30–60 min before treatment with freshly prepared acrolein, CSE, TNF-α and IL-1β for 18 hours at 37°C with 5% CO2. Subsequently, supernatants were collected and stored at −80°C for ELISA assay. Human IL-8 was measured using a paired antibody quantitative ELISA kit (Invitrogen) (detection limit: 5 pg/ml). The assays were performed according to the manufacturer's instructions. Vitality assay method (MTT reduction assay) is available online as (Text S1)."}}, "data": [{"smiles": "CC(C)c1ccc(NC(=O)Cn2cnc3c2c(=O)n(C)c(=O)n3C)cc1", "note": "[HC-030031]", "values": [{"measurement": "effect on acrolein (5 mM, i.t.)- and CSE (1 OD, i.t.)-evoked increase in PPE", "setting": "[1]", "value": "prevent"}, {"measurement": "effect of pretreatment on KC release evoked by acrolein or CSE", "setting": "[2]", "value": "significantly reduced"}, {"measurement": "effect of antagonist on CSE-evoked IL-8 release", "setting": "[3]", "value": "reduced"}, {"measurement": "effect of antagonist on IL-8 release induced by IL-1β or TNF-α", "setting": "[3]", "value": "not affected"}, {"measurement": "effect of antagonist on acrolein-evoked IL-8 release", "setting": "[3]", "value": "significantly reduced"}]}]}
